Source: patent publication EP0277849A1, “Incorporation of one or more lipophilic, active principles into lipoproteins, lipoproteins obtained and pharmaceutical compositions containing them” (IRE-CELLTARG S.A., priority 1987, dated 1988)
Like-named read-outs stand apart in the source and are kept apart here.

What was measured:
[1] = system: Candida tropicalis; assay: Intracellular infection model: J77468 macrophages infected with Candida tropicalis; format: cell-based; conditions: 2 % de sérum de veau foetal
Description: (§1) La lignée continue de macrophages J77468 d'origine murine provient d'un clonage de la souche J774 ATCC, et est cultivée en milieu RPMI 1640 additionné de glutamine 2 mM, 10% de sérum de veau foetal (décomplémenté 60 min. à 56°) et de 10 mM Hepes (pH 7.2). Une suspension de 5 10^6 cellules/ml sont infectées avec une culture de Candida tropicalis (5 10^5 levures/ml) provenant d'une culture de nuit dans de la casitone. Le milieu d'infection utilisé est du RPMI contenant 2 % de sérum de veau nouveau-né et 10 mM Hepes (pH 7.2).
(§2) Après 3 h d'incubation à 37° dans un mélange d'air 10 % C02, la phagocytose des levures est complète. La suspension cellulaire macrophages-Candida est centrifugée, lavée abondamment et répartie à raison de 10^5 macrophages infectés/alvéole dans des boîtes à 24 alvéoles contenant une lamelle de verre (diamètre 14 mm). Après 3 h de phagocytose (To), sur 100 macrophages, 32 contiennent de 1 à 6 Candida/macrophage, l'infection moyenne étant de 2 Candida/macrophage.
(§3) Toutes les levures ont été phagocytées sauf rares exceptions (estimation au microscope optique après coloration au May-Grünwald Giemsa). Douze concentrations différentes des drogues de référence et des drogues encapsulées dans les LDL sont distribuées dans les boîtes contenant les macrophages infectés.
(§4) L'évaluation de l'efficacité d'une drogue se fait à chaque concentration. Testées après 18 h d'incubation (37°, dans un mélange air-10 % C02), les levures se multiplient d'abord au sein des cellules hôtes, puis dans le milieu extracellulaire. Le taux de macrophages infectés est alors de 75 % chez les témoins. Une cellule peut contenir de 1 à plus de 20 Candida/cellule, la majorité contient de 2 à 6 levures/cellule. Le milieu de culture contient 10^8 Candida extracellulaires/ml (comptage dans une cellule de Burker).
L'activité d'une drogue encapsulée ou non dans les LDL ou Ac-LDL par rapport à un antifongique de référence, le kétoconazole (K), est déterminé par la concentration micromolaire en drogue réduisant de 50 % le nombre de macrophages infectés par les Candida (=C150). Signalons que parallèlement à la réduction au cours du traitement, du taux de cellules infectées, le nombre de Candida par macrophage infecté diminue fortement (de 1 à 3 levures/cellule).
Le milieu de culture est RPMI + glutamine 2 mM + Hepes 10 mM + 2 % de sérum de veau foetal.

[2] = system: macrophages J77468; assay: Toxicity for J77468 macrophages (MTT reduction); format: cell-based, murine; conditions: for % de viabilité cellulaire*: 18 h, MTT
Description: as §1
La viabilité des macrophages J77468 cultivés dans du milieu contenant l'agent antifongique encapsulé ou non dans les LDL figure au Tableau 5. K et K01 sont toxiques aux concentrations nécessaires pour réduire de 50 % l'infection intracellulaire (C1250) contrairement au LDL-K01 pour lequel aucune toxicité n'a pu être détectée.

[3] = system: C. tropicalis; assay: Extracellular infection in the infected-macrophage model; format: cell-based; conditions: Candida tropicalis, read-out: CIext50^(a)
Description: as §1, §2, §3, §4
L'action des AF encapsulés sur une infection extracellulaire peut être évaluée de deux manières : d'une part en déterminant le nombre de Candida extracellulaires dans un modèle d'infection intracellulaire (voir VIII § 1.1.), d'autre part en mesurant la concentration minimale inhibitrice (CMI) de ces composés par la méthode de dilutions successives dans des boîtes à multipuits (milieu RPMI).

With `CCCCCCCC/C=C\CCCCCCCC(=O)N1CCN(c2ccc(OC[C@H]3CO[C@](Cn4ccnc4)(c4ccc(Cl)cc4Cl)O3)cc2)CC1` [KO1] the “CI50 K/AF” value [1] was 0,6, the IC50 ([1]; Candida tropicalis, Macrophage, micromolar concentration reducing infected macrophages by 50 %, 18 h, read-out: CI50 (the source's name)) was 85.3 µM and the “toxicité aux concentrations nécessaires pour réduire de 50 % l'infection intracellulaire” value [2] was “toxiques”. For the same compound, the “% de viabilité cellulaire*” value ([2]; Concentration 0,78 µM) was 67,72%, the “% de viabilité cellulaire*” value ([2]; Concentration 1,56 µM) was 67,72% and the “% de viabilité cellulaire*” value ([2]; Concentration 3,13 µM) was 67,36%. The “% de viabilité cellulaire*” value ([2]; Concentration 6,25 µM) was 60,70%, the “% de viabilité cellulaire*” value ([2]; Concentration 12,50 µM) was 69,47% and the “% de viabilité cellulaire*” value ([2]; Concentration 25,00 µM) was 67,71%. The “% de viabilité cellulaire*” value ([2]; Concentration 50,00 µM) was 71,22%, the “% de viabilité cellulaire*” value ([2]; Concentration 100,00 µM, versus untreated control) was 38,94% and the IC50 ([3]; addition de 2 % Pl.H. (plasma humain)) was 50.1 µM. It also gave an IC50 ([3]; addition de 2 % SVF (sérum de veau foetal)) of 8.31 µM.
